Measurements: patent publication EP0705258B1, “AZOLYL-CYCLIC AMINE DERIVATIVES WITH IMMUNOMODULATORY ACTIVITY” (Knoll AG, priority 1993, dated 1995)

Assays:
[1] = tested on: tumour necrosis factor-α (TNF-α); test: Mouse Tumour Necrosis Factor Test (Test B), mouse endotoxin shock model, serum TNF-α by ELISA; format: in vivo, BALB/c mice; conditions: Mus musculus; minimum effective oral dose giving significant reduction in serum TNF-α of ≥35%; dosed 2 h before LPS i.p.; ≤ = active at dose given but not tested at lower doses; read-out: MTNF:MED
Excerpt: Preferred compounds of the present invention are active in an in-vivo test which determines the ability of the compounds to inhibit the release of tumour necrosis factor-α (TNF-α) in a mouse endotoxin shock model (Test B). This model is similar to that described by Zuckerman and Bendele (1989), Infection and Immunity 57 (10): p3009-3013.
Each compound of formula I was combined with a carrier of a solution of 1.5% v/v sorbitan esters under the trade name Tween 80 and 0.25% v/v cellosize in sterile water (100 µl) and was administered orally to a group of four BALB/c mice. The concentration of compound was such as to provide dosages selected from 100, 30, 10, 3, 1, 0.1 and 0.03 mg/kg. Two hours after such oral administration, lipopolysaccharide (LPS) (E. coli 0127:B8) (100 µg) in sterile water (0.2 ml) was administered intraperitoneally to the test mice.
A control group of eight BALB/c mice was treated in a similar manner as the test group except that no test compound was included with the carrier.
One hour after LPS administration the mice were killed and blood was collected by cardiac puncture. The blood was incubated at 20°C for 2 hours and the serum was separated from the clotted blood following centrifugation. Serum tumour necrosis factor-α (TNF-α) levels were assayed by an enzyme-linked immunosorbent assay (ELISA) and the concentration of TNF-α in each of the drug-treated groups was compared with the control group by one-way analysis of variance followed by a multiple t-test.
The ELISA was carried out by coating a 96-well vinyl assay plate (Costar) overnight at 4°C with 50 µl per well of 2 µg/ml hamster anti-mouse TNF monoclonal antibody in 0.1M sodium hydrogen carbonate buffer at pH 8.2. After washing the plate with phosphate buffered saline (PBS) containing 0.05% v/v sorbitan esters under the trade name Tween 20 (wash buffer), a blocking/dilution buffer (10% sheep serum in PBS containing 0.1% v/v sorbitan esters under the trade name Tween 20 (200 µl)) was aliquoted to each well and incubated at 37°C for 0.5 hours. After aspirating the blocking buffer, the serum samples and pure TNF (as a standard) diluted in blocking/dilution buffer, were added to the wells and incubated at 37°C for 2 hours. After washing with the wash buffer, a polyclonal rabbit anti-mouse TNF-α antibody in blocking/dilution buffer (100 µl of a 1 in 10,000 dilution) was added and incubated for a further 1.5 hours at 37°C. After further washes, anti-rabbit IgG peroxidase conjugate (100 µl of a 1 in 4000 dilution) was added and incubated at 37°C for 0.5 hours. After further washing, the substrate solution (100 µl per well of 0.1 mg/ml 3,3', 5,5'-tetramethylbenzidine dihydrochloride in 0.1M phosphate citrate buffer, pH 5.0, to which 2 µl of 30% hydrogen peroxide per 10 ml was added just before use) was added and the colour allowed to develop. The reaction was stopped by the addition of 1M sulphuric acid (25 µl) and the optical density read in a multichannel spectrophotometer at 450 nm. The mean TNF-α concentration was determined by comparison with the standard curve and the mean TNF-α concentration for each group compared with that produced by the control group. Drug treatments which cause a statistically significant reduction in TNF-α concentration of ≥35% at a single dose at 100 mg/kg or less were considered active.

[2] = tested on: lymphocyte proliferation (BALB/c responder and mitomycin C treated C57BL/6 stimulator spleen cells); test: Mixed Lymphocyte Reaction (Test A), one-way MLR, tritiated thymidine incorporation; format: cell-based, mice; conditions: Mus musculus; concentration causing 50% inhibition of lymphocyte proliferation, by linear interpolation; ≤ = active at this concentration but not tested at lower doses
Protocol: A mixed lymphocyte reaction (MLR) occurs when lymphocytes from two genetically dissimilar individuals, or inbred strains of mice are cultured together. An MLR results in the activation and proliferation of lymphocytes, which is measured by the incorporation of radiolabelled thymidine into the cellular DNA synthesised during cell division. A 'one-way' MLR is used to determine the immunosuppressive activity of test compounds in vitro. In this reaction one population of spleen cells serves as the stimulator cells and is treated with mitomycin C to prevent cell division. Spleen cells from a second allogeneic population (responder cells) are untreated and when mixed with the stimulator cells are able to undergo division which is measured. The degree of proliferation is measured in the presence and absence of test compound to assess the immunosuppressive activity of the compound.
The techniques for carrying out lymphocyte proliferation assays including MLRs are well known, eg Bradley, pages 156-166, in Mishell and Shiigi, Eds. Selected Methods in Cellular Immunology (Freeman, San Francisco, 1980); and Battisto et al, methods in Enzymology 1987; 150: 83-91. Various slight modifications of these techniques are in use and that used herein is described in Gibb, Webber and Bowen, J Immunological Methods 1985; 81: 107-113.
Cell suspensions obtained from the spleens of female BALB/c and C57BL/6 strain mice of between 6 and 9 weeks of age were used as sources of responder and stimulator cells respectively. The mice were killed using a rising concentration of CO2 and the spleens removed aseptically and teased using a scalpel and forceps to produce a single cell suspension in Hanks balanced salt solution (HBSS). The suspensions were filtered through cell strainers (Falcon), sedimented by centrifugation and resuspended in Tris-buffered ammonium chloride pH 7.2 (medium D) to lyse the erythrocytes. The cells were sedimented again and washed twice in HBSS before resuspending in complete RPMI 1640 tissue culture medium (medium E). The C57BL/6 cells were resuspended to 9 mls per spleen and a solution of mitomycin C at 400 µg/ml in medium E added to give a final concentration of 40 µg/ml. After incubation of the C57BL/6 cells at 37°C for 30 minutes in an atmosphere of 5% CO2 and 95% air, the cells were sedimented and washed 3 times in medium E. Both cell suspensions were diluted in medium E to 5 x 10^6 cells/ml. 100µl of each of the responder and stimulator cell suspensions were aliquoted into the wells of 96 well flat bottom microtitre plates containing 50 µl of test compound at an appropriate dilution (initially 50 µM diluted in medium E from a stock solution at 100 mM in dimethyl sulphoxide) giving a final test compound concentration of 10 µM (final dilution). Compounds active at this concentration were tested at further final dilution of 1 µM, 0.1 µM and 0.01 µM and 0.001 µM to determine the concentration of test compound which causes 50% inhibition of the immune response (IC50). After four days of culture at 37°C in a humidified atmosphere of 5% CO2 and 95% air, 1 µCi of tritiated thymidine in 20 µl of medium E was added to each well and the plates incubated for a further 24 hours. Cells were then harvested onto Inotech G7 glass fibre filter mats using an Inotech cell harvester. The filters were transferred to vials to which 2 ml of Packard Emulsifier-Safe scintillation fluid was added and the radioactivity from the incorporated thymidine was counted in a Packard liquid scintillation counter. The counts per minute (CPM) reflect the degree of lymphocyte proliferation. The data were analysed to determine the percentage inhibition of lymphocyte proliferation by the test compound. […]

Structure (SMILES) | minimal effective dose [1] [mg/kg] | IC50 [2] [nM]
Cc1nc2ccccc2n1CCC1CCN(CCCc2ccccc2)CC1 [Example 112, 2-Methyl-1-{2-[1-(3-phenylpropyl)piperidin-4-yl]ethyl}benzimidazole] | 100 | 3000
CSc1ccc(CCCN2CCC(CCn3ccnc3)CC2)cc1 [Example 127, 4-[2-(Imidazol-1-yl)ethyl]-1-[3-(4-methylthiophenyl)propyl]piperidine] | 30 | 1900
c1ccc(CCN2CCC(CCn3ccnc3)CC2)cc1 [Example 128, 4-[2-(Imidazol-1-yl)ethyl]-1-phenethylpiperidine] | ≤ 30 | 2000
CC1CN(CCCc2ccccc2)CCC1CCn1ccnc1 (centres unmarked) [Example 103, 4-[2-(Imidazol-1-yl)ethyl]-3-methyl-1-(3-phenylpropyl)piperidine] | ≤ 30 | 1900
C(=Cc1ccccc1)CN1CCC(CCn2ccnc2)CC1 [Example 90, 1-Cinnamyl-4-[2-(imidazol-1-yl)ethyl]-piperidine] | ≤ 30 | 2200
Clc1ccc(CCCN2CCC(CCn3ccnc3)CC2)cc1 [Example 123, 1-[3-(4-Chlorophenyl)propyl]-4-[2-(imidazol-1-yl)ethyl]piperidine] | ≤ 30 | 700
Cc1ccc(CCCN2CCC(CCn3ccnc3)CC2)cc1 [Example 122, 4-[2-(Imidazol-1-yl)ethyl]-1-[3-(4-methylphenyl)propyl]piperidine] | ≤ 30 | 2800
Cc1ncn(CCC2CCN(CCCc3ccccc3)CC2)c1C [Example 116, 4-[2-(4,5-Dimethylimidazol-1-yl)ethyl]-1-(3-phenylpropyl)piperidine] | 30 | 2000
c1ccc(CCCN2CCC(Cn3ccnc3)CC2)cc1 [Example 102, 4-Imidazol-1-ylmethyl-1-(3-phenylpropyl)piperidine] | ≤ 100 | 5200
c1ccc(CCCN2CCC(CCn3cnc4ccccc43)CC2)cc1 [Example 114, 1-{2-[1-(3-Phenylpropyl)piperidin-4-yl]-ethyl}benzimidazole] | 30 | 4200
CC(c1ccc(Cl)cc1)N1CCC(CCn2ccnc2)CC1 (centres unmarked) [Example 93, 1-[1-(4-chlorophenyl)ethyl]-4-[2-(imidazol-1-yl)-ethyl]piperidine] | 30 | 1100
Cc1nccn1CCC1CCN(CCCc2ccccc2)CC1 [Example 117, 4-[2-(2-Methylimidazol-1-yl)ethyl]-1-(3-phenylpropyl)piperidine] | 100 | 200
c1ccc(OCCN2CCC(CCn3ccnc3)CC2)cc1 [Example 87, 4-[2-(Imidazol-1-yl)ethyl]-1-(2-phenoxyethyl)piperidine] | ≤ 100 | 8000
c1ccc(CCCCN2CCC(CCn3ccnc3)CC2)cc1 [Example 129, 4-[2-(Imidazol-1-yl)ethyl]-1-(4-phenylbutyl)piperidine] | 30 | 2100
CC(Cn1ccnc1)C1CCN(CCCc2ccccc2)CC1 (centres unmarked) [Example 113, 4-[2-(Imidazol-1-yl)-1-methylethyl]-1-(3-phenylpropyl)piperidine] | 10 | 300
O=C(CN1CCC(CCn2ccnc2)CC1)Nc1ccc(C(F)(F)F)cc1 [Example 91, 4-[2-(Imidazol-1-yl)ethyl]piperidino-4'-trifluoromethylacetanilide] | 30 | 100
Cc1nc(Cl)c(Cl)n1CCC1CCN(CCCc2ccccc2)CC1 [Example 115, 4-[2-(4,5-Dichloro-2-methylimidazol-1-yl)ethyl]-1-(3-phenylpropyl)piperidine] | 100 | 1200
c1ccc(CCCN2CCC(CCn3ccnc3-c3ccccc3)CC2)cc1 [Example 109, 4-[2-(2-Phenylimidazol-1-yl)ethyl]-1-(3-phenylpropyl)piperidine] | 100 | 3600
Cl.Cl.c1ccc(CCCN2CCC(CCn3ccnc3)CC2)cc1 [Example 98, 4-[2-(imidazol-1-yl)ethyl]-1-(3-phenylpropyl)piperidine dihydrochloride] | 30 | 300
